Columns and labels:
[1] = Body weight of C57BL/6J mice fed creamer-containing high fat diet with allulose for 8 weeks; type: in vivo; details: for Body weight: HFD + creamer + 5 wt % allulose (PRA), mean ± SE, in g (unit assumed)
Source text: (§1) 16 C57BL/6J mice (male, 4-week-old) were purchased from the Jackson Laboratory (USA) and used. The mice were allowed to adapt to the breeding environment with the lab-chow diet (Purina Co., USA) for 4 weeks. Then, the mice were divided, by using the randomized block design, into a negative control group (PR: 8 mice), in which allulose was not fed, and an experimental group (PRA: 8 mice), in which allulose was fed, and the mice were fed with diet for 8 weeks.
For the diet of the negative control group, AIN-76 diet and HFD were applied, in which creamer [“Prima”, Dongsuh Foods Corporation, Korea; raw materials: 30-38 wt % of hydrogenated vegetable lipid (hydrogenated coconut oil, hydrogenated palm oil), starch syrup (including maltose), sodium caseinate, potassium phosphate dibasic, calcium phosphate tribasic] was used as the vegetable lipid. For the diet of the experimental group, 5 wt % of sugar among the components of the diet of the negative control group were replaced with allulose (crystal allulose, 98 wt % or higher of allulose based on dry solid content, CJ Cheiljedang) and used (Table 1). All animal experiments were conducted with the approval of the Ethical Commission for Animal Experimentation, Kyungpook National University (Approval No.: KNU-2013-18).
Pair feeding was performed based on the experimental group so as to feed the same level of iso-energetic diet, and thereby the effect of calorie reduction by allulose was excluded. The diet was refrigerated at 4° C. during the breeding period. The mice were bred in individual cages under constant temperature (25±2° C.), constant humidity (50±5%), and dark-light cycles at 12 hour intervals.
Dietary intake was measured at constant time every day, and body weight was measured at constant time every week.

[2] = Fecal lipid excretion in C57BL/6J mice fed creamer-containing high fat diet with allulose for 8 weeks; type: in vivo
Source text: as §1
For the diet of the negative control group, AIN-76 diet and HFD were applied, in which creamer [“Prima”, Dongsuh Foods Corporation, Korea; raw materials: 30-38 wt % of hydrogenated vegetable lipid (hydrogenated coconut oil, hydrogenated palm oil), starch syrup (including maltose), sodium caseinate, potassium phosphate dibasic, calcium phosphate tribasic] was used as the vegetable lipid. […]
Among them, 200 μL each were collected for the measurement of cholesterol and free fatty acids and dried again under nitrogen gas, and those for the measurement of neutral lipid and total cholesterol were dissolved in 500 μL of ethanol. […] At the time of quantification of total cholesterol and neutral lipid, 3 mM cholic acid (sodium salt) as an emulsifier and 0.5% Triton X-100 (for removal of turbidity that occurs at the time of color development) were mixed and used.
For the measurement of total cholesterol, 10 μL of the solution dissolved in ethanol (500 μL) and the emulsifier (690 μL) were mixed, and then 800 μL of a test solution (Asan Pharmaceutical kit) for measurement applying the enzyme method of Allain et al. (1974) was mixed. For quantification of both in forms of free cholesterol (FC) and cholesterol ester (CE), CE was converted to FC and fatty acid by cholesterol esterase. […] The obtained product and H2O2 as a substrate were reacted with peroxidase, phenol, and 4-amino-antipyrine to obtain a red coloring material, and then the absorbance was measured at 500 nm. The measured value was quantified by comparing with the cholesterol standard curve. […]

[3] = experimental group (PRA) compared to negative control group (PR)

For `O=C(CO)C(O)C(O)C(O)CO` [allulose, Allulose (D-psicose)], the Body weight ([1]; 0 week of diet) was 21.47 ± 0.50, the Body weight ([1]; 8th week of diet) was 27.41 ± 0.48 and the “Inhibitory effect against weight gain” value ([1]; experimental group (PRA) vs negative control (PR), from 1st week of diet, 8 weeks) was “significantly inhibited”. The “Excretion of lipid as feces” value ([2]; allulose ingested along with the vegetable lipid in creamer) was “promoted”, the “Amount of free fatty acids in the feces vs negative control” value [2, 3] was “significantly increased” and the “Amount of triglycerides in the feces vs negative control” value [2, 3] was “significantly increased”.
